Consider 20 compounds from PMC6864781, “Synthesis, Antitumor Activity, and Docking Analysis of New Pyrido[3′,2′:4,5]furo(thieno)[3,2-d]pyrimidin-8-amines” (Molecules, 2019).

Structures are written as SMILES. Converted amounts (≈) assume the structure as drawn. “Also recorded” adds a separate entry of the source.

The inhibition is the percentage by which the read-out fell short of the control. The IC50 is the concentration needed to halve the response being measured.

Holding throughout (format): cell-based
The test system of test [1] is DNA of tumor sarcoma 180 (S-180). In words: Influence on methylation of DNA of tumor sarcoma 180 in vitro (5-MC content). The conditions noted are these: 3 × 10^−6 M compound, 24 h at 37 °C; for inhibition at 3 µM: reduction of 5-MC content vs S-180 control, read-out: Inhibition of the Level of DNA Methylation; for Content of Bases in DNA, 5-MC ± ζ: tumor homogenate, S-180 control 0.64 ± 0.02, seven determinations; for Effect on tumor DNA methylation (in words): S-180. As to the method:
It is known that DNA methylation in cancer plays a variety of roles, helping to change the healthy regulation of gene expression to a disease pattern. DNA hypermethylation in neoplasia is a specific epigenetic sign that can guide the diagnosis and treatment of this disease. We studied the effect of synthesized substances on tumor DNA in vitro. After the incubation of tumor cells with the studied compounds, the isolated DNA was hydrolyzed to nitrogen bases. In the studied DNA, the nucleotide composition (guanine (G), cytosine (C), 5-methylcitosine (5-MC), adenine (A), thymine (T)) complied with the rules of Chargaff. Isolated DNA belonged to the AT type, and the amount of basic bases (G + C + 5-MC) within them was 42.24–44.64 mol %, which is typical for eukaryotic DNA. Almost the same content of basic bases (G, C, A, and T) was observed, while a clear difference between DNA samples was found only in relation to the content of 5-MC, which indicated the demethylating ability of the compounds.
The influence of synthesized compounds on the methylation of DNA of tumor sarcoma 180 (S-180) was studied in vitro. Transplanted S-180 was isolated from animals after slaughter by decapitation under ether narcosis. A 3 × 10^−6 M solution of compounds (solvent: carboxymethylcellulose) was added to the tumor homogenate (12.5 mL of a solution per 10 g of tumor), and the mixture was incubated for 24 h at 37 °C. After the incubation, tumor DNA was extracted using the phenol–chloroform method. Hydrolysis to the nitrogen bases was carried out in sealed glass ampoules in 85% formic acid at 176 °C for 1 h (0.1 mL of acid per 1 mg of DNA). The separation of nitrogen bases (guanine (G), cytosine (C), 5-methylcitosine (5-MC), adenine (A), and thymine (T)) was produced by thin-layer chromatography in the solvent n-butanol/water/ammonia. Spectrophotometry of the eluates of all bases was made against eluates from the respective control areas of the chromatograms. In our studies, the well-known antitumor drug doxorubicin (manufactured by EBEWE Pharma Ges.m.b.H. Nfg. KG, 4866 Unterach, Austria) was used as a standard preparation. The data were statistically processed using Student’s and Fischer’s tests (p < 0.05).

Another test relates to Vero cells. In words: Cell viability (MTT) assay, Vero. As to conditions: Chlorocebus sabaeus, Vero (normal cells), 72 h, read-out: IC50, antiproliferative activity. As to the method:
(§1) Vero and HeLa cells were seeded in a 96-well culture plate at a density of 20,000 cells/well. The plates were preincubated in a 5% CO2/95% air-humidified atmosphere at 37 °C for 24 h to allow for adaptation of the cells prior to the addition of the test compounds. All compounds were dissolved in dimethyl sulfoxide (DMSO) prior to dilution (1 mg/mL stock solution). The 50% inhibitory concentration (IC50) was determined over a range of concentrations (0.5 μg/mL to 10 μg/mL). All cells were incubated for 72 h, and then cell viability was estimated using an MTT (3-(4,5-dimethylthiazol-2-yl)-2,5-diphenyltetrazolium bromide) assay, as previously described. Colorimetric measurements were performed on a microplate reader at 570 nm (Tecan Spectra II, Switzerland). The percentage of viable cells was calculated for each concentration as ((ODT/ODC) × 100), where ODT and ODC corresponded to the absorbance of the treated and control cells, respectively. The IC50 was calculated by using linear regression analysis.

In a further test the test system is HeLa cells. In words: Cell viability (MTT) assay, HeLa. As to conditions: Homo sapiens, 72 h, read-out: IC50, antiproliferative activity. How it is done:
as §1

Turning to `CCOC(=O)N1CCN(c2ncnc3c2sc2nc(C(C)C)c4c(c23)CC(C)(C)OC4)CC1` [Compound 7l, Ethyl 4-(5-isopropyl-2,2-dimethyl-1,4-dihydro-2H-pyrano[4″,3″:4′,5′]pyrido[3′,2′:4,5]thieno[3,2-d]pyrimidin-8-yl)piperazine-1-carboxylate], in test [1], the inhibition at 3 µM came to 29.7% and the “Content of Bases in DNA, 5-MC ± ζ” value turned out to be 0.45 ± 0.03 mol %.

Take `CCN(CC)CCNc1ncnc2c1sc1nc(-c3ccco3)c3c(c12)CCCC3` [Compound 5e, N,N-Diethyl-N′-[5-(2-furyl)-1,2,3,4-tetrahydropyrimido[4′,5′:4,5]thieno[2,3-c]isoquinolin-8-yl]ethane-1,2-diamine]: in test [1], the inhibition at 3 µM is 28.1% and the “Content of Bases in DNA, 5-MC ± ζ” value worked out at 0.46 ± 0.02 mol %.

In the case of `CC(C)Cc1nc2oc3c(NCCCO)ncnc3c2c2c1COC(C)(C)C2` [Compound 7k], in test [1], the inhibition at 3 µM came to 18.8% and the “Content of Bases in DNA, 5-MC ± ζ” value is recorded as 0.52 ± 0.01 mol %.

Consider `CC(C)CNc1ncnc2c1sc1nc(-c3ccco3)c3c(c12)CCCC3` [Compound 5d, 5-(2-Furyl)-N-isobutyl-1,2,3,4-tetrahydropyrimido[4′,5′:4,5]thieno[2,3-c]isoquinolin-8-amine], for which, in test [1], the inhibition at 3 µM is 34.4% and the “Content of Bases in DNA, 5-MC ± ζ” value was found to be 0.42 ± 0.03 mol %.

For `CC(C)Cc1nc2oc3c(NCCO)ncnc3c2c2c1COC(C)(C)C2` [Compound 7j, 2-[(5-Isobutyl-2,2-dimethyl-1,4-dihydro-2H-pyrano[4″,3″:4′,5′]pyrido[3′,2′:4,5]furo[3,2-d]pyrimidin-8-yl)amino]ethanol], the “Effect on tumor DNA methylation (in words)” value in test [1] is “did not affect DNA methylation; also recorded: no activity”.

Turning to `CC(C)c1nc2oc3c(NCc4ccco4)ncnc3c2c2c1COC(C)(C)C2` [Compound 7g, N-(2-Furylmethyl)-5-isopropyl-2,2-dimethyl-1,4-dihydro-2H-pyrano[4″,3″:4′,5′]pyrido[3′,2′:4,5]furo[3,2-d]pyrimidin-8-amine], in test [1], the inhibition at 3 µM was found to be 40.6% and the “Content of Bases in DNA, 5-MC ± ζ” value is 0.38 ± 0.02 mol %.

For the compound `CC(C)c1nc2oc3c(NCCCN(C)C)ncnc3c2c2c1COC(C)(C)C2` [Compound 7i], the “Effect on tumor DNA methylation (in words)” value in test [1] is “did not affect DNA methylation; also recorded: loss of activity”.

Regarding `CC(C)c1nc2oc3c(NCCO)ncnc3c2c2c1COC(C)(C)C2` [Compound 7a], the “Content of Bases in DNA, 5-MC ± ζ” value in test [1] came out at 0.85 ± 0.03 mol %.

Regarding `CC(C)c1nc2sc3c(NCC4CCCO4)ncnc3c2c2c1COC(C)(C)C2` (stereo not shown) [Compound 7m, 5-Isopropyl-2,2-dimethyl-N-(tetrahydrofuran-2-ylmethyl)-1,4-dihydro-2H-pyrano[4″,3″:4′,5′]pyrido[3′,2′:4,5]thieno[3,2-d]pyrimidin-8-amine], in test [1], the inhibition at 3 µM was found to be 37.5% and the “Content of Bases in DNA, 5-MC ± ζ” value was 0.40 ± 0.02 mol %.

As to `CC1CCN(c2ncnc3c2sc2nc(-c4ccco4)c4c(c23)CCCC4)CC1` [Compound 5b, 5-(2-Furyl)-8-(4-methylpiperidin-1-yl)-1,2,3,4-tetrahydropyrimido[4′,5′:4,5]thieno[2,3-c]isoquinoline], the IC50 with Vero cells came to 16.8 ± 0.6 µg/mL (≈ 41.5 µM). In test [1], the inhibition at 3 µM was 60.9% and the “Content of Bases in DNA, 5-MC ± ζ” value amounted to 0.25 ± 0.02 mol %. Besides, the half-inhibitory concentration (IC50) with HeLa cells turned out to be 8.4 ± 0.2 µg/mL (≈ 20.8 µM).

On to `c1coc(-c2nc3sc4c(NCC5CCCO5)ncnc4c3c3c2CCCC3)c1` (stereo not shown) [Compound 5f, 5-(2-Furyl)-N-(tetrahydrofuran-2-ylmethyl)-1,2,3,4-tetrahydropyrimido[4′,5′:4,5]thieno[2,3-c]isoquinolin-8-amine], for which the values for the IC50 in the test with Vero cells and in the test on HeLa cells were 6.4 ± 0.4 µg/mL (≈ 15.7 µM) and 4.4 ± 0.3 µg/mL (≈ 10.8 µM), respectively. Moreover, the inhibition at 3 µM in test [1] came out at 89.1%. Moreover, the “Content of Bases in DNA, 5-MC ± ζ” value in test [1] turned out to be 0.07 ± 0.02 mol %.

As to `COc1cccc2c1C(=O)c1c(O)c3c(c(O)c1C2=O)C[C@@](O)(C(=O)CO)C[C@@H]3O[C@H]1C[C@H](N)[C@H](O)[C@H](C)O1` [Doxorubicin, doxorubicin, reference compound], in test [1], the inhibition at 3 µM came to 67.2% and the “Content of Bases in DNA, 5-MC ± ζ” value is reported as 0.21 ± 0.01 mol %.

For the compound `c1coc(-c2nc3sc4c(N5CCCCC5)ncnc4c3c3c2CCCC3)c1` [Compound 5a, 5-(2-Furyl)-8-piperidin-1-yl-1,2,3,4-tetrahydropyrimido[4′,5′:4,5]thieno[2,3-c]isoquinoline], in test [1], the inhibition at 3 µM is 40.6% and the “Content of Bases in DNA, 5-MC ± ζ” value is given as 0.38 ± 0.02 mol %.

As for `c1coc(-c2nc3sc4c(N5CCOCC5)ncnc4c3c3c2CCCC3)c1` [Compound 5c, 5-(2-Furyl)-8-morpholin-4-yl-1,2,3,4-tetrahydropyrimido[4′,5′:4,5]thieno[2,3-c]isoquinoline], in test [1], the inhibition at 3 µM was 23% and the “Content of Bases in DNA, 5-MC ± ζ” value is 0.49 ± 0.02 mol %.

Regarding `CC(C)c1nc2oc3c(NCC4CCCO4)ncnc3c2c2c1COC(C)(C)C2` (stereo not shown) [Compound 7f, 5-Isopropyl-2,2-dimethyl-N-(tetrahydrofuran-2-ylmethyl)-1,4-dihydro-2H-pyrano[4″,3″:4′,5′]pyrido[3′,2′:4,5]furo[3,2-d]pyrimidin-8-amine], in test [1], the inhibition at 3 µM turned out to be 21.9% and the “Content of Bases in DNA, 5-MC ± ζ” value was 0.50 ± 0.02 mol %.

`CC(C)c1nc2oc3c(NCCN(C)C)ncnc3c2c2c1COC(C)(C)C2` [Compound 7b]: the figures for the IC50 in the test on Vero cells and in the test with HeLa cells were 13.7 ± 0.4 µg/mL (≈ 35.7 µM) and 5.4 ± 0.2 µg/mL (≈ 14.1 µM), respectively. Also, the inhibition at 3 µM in test [1] worked out at 62.5%. Further, the “Content of Bases in DNA, 5-MC ± ζ” value in test [1] is 0.24 ± 0.01 mol %.

For the compound `CC(C)c1nc2oc3c(NCCN4CCOCC4)ncnc3c2c2c1COC(C)(C)C2` [Compound 7d], in test [1], the inhibition at 3 µM worked out at 48.4% and the “Content of Bases in DNA, 5-MC ± ζ” value is given as 0.33 ± 0.01 mol %.

For the compound `CCN(CC)CCNc1ncnc2c1oc1nc(C(C)C)c3c(c12)CC(C)(C)OC3` [Compound 7c, N,N-Diethyl-N′-(5-isopropyl-2,2-dimethyl-1,4-dihydro-2H-pyrano[4″,3″:4′,5′]pyrido[3′,2′:4,5]furo[3,2-d]pyrimidin-8-yl)ethane-1,2-diamine], in test [1], the inhibition at 3 µM stood at 42.2% and the “Content of Bases in DNA, 5-MC ± ζ” value was 0.37 ± 0.01 mol %.

As for `COc1ccc(CCNc2ncnc3c2oc2nc(C(C)C)c4c(c23)CC(C)(C)OC4)cc1OC` [Compound 7e, N-[2-(3,4-Dimethoxyphenyl)ethyl]-5-isopropyl-2,2-dimethyl-1,4-dihydro-2H-pyrano[4″,3″:4′,5′]pyrido[3′,2′:4,5]furo[3,2-d]pyrimidin-8-amine], in test [1], the inhibition at 3 µM turned out to be 56.2% and the “Content of Bases in DNA, 5-MC ± ζ” value is 0.28 ± 0.01 mol %.

On to `CC(C)c1nc2oc3c(NCc4cccnc4)ncnc3c2c2c1COC(C)(C)C2` [Compound 7h], for which, in test [1], the inhibition at 3 µM was determined as 34.4% and the “Content of Bases in DNA, 5-MC ± ζ” value is on record as 0.42 ± 0.02 mol %.
